According to publication PMC6736837, “^18F-labelled triazolyl-linked argininamides targeting the neuropeptide Y Y1R for PET imaging of mammary carcinoma” (Scientific Reports, 2019):
“Also recorded” adds a separate entry of the source. Values belong to the molecule of their own block, whether it stands above or below them.

Key:
[1] = biological target: Y1R; design: method as in PMID 28337321; settings: displacement of [^3H]UR-MK114, SK-N-MC neuroblastoma cells; cited from earlier work
[2] = Octanol-water distribution coefficient logD7.4, shake flask method; assay type: physicochemical; settings: 1-octanol/PBS, pH 7.4, PBS/1-octanol, read-out: logD7.4 experimental
Experimental: The lipophilicity of the radioligands was determined by the distribution coefficient logD7.4. The respective radioligand (10 µL, about 25 kBq) was added to a mixture of PBS (500 µL) and 1-octanol (500 µL) and the emulsion was vortexed for 1 min. After centrifugation 3 × 100 µL were taken of each layer and analysed by a γ-counter. The partition coefficient was calculated as logD7.4=log(cpmoctanol/cpmPBS) . Data were expressed as mean values ± SD from three experiments.

[3] = Binding to human plasma proteins by gel filtration; assay type: in vitro ADME; settings: 37 °C, read-out: Free fraction in plasma
Experimental: The binding of ^18F-labelled compounds to plasma proteins was determined using gel filtration columns(illustra™ MicroSpin™ G-50 Columns, GE Healthcare Life Sciences, Freiburg). An aliquot of the radiotracer (approx. 100 kBq) was added to 200 µL of saline, and 100 µL of human plasma, respectively. Both samples were incubated at 37 °C for 10 min. MicroSpin™ columns were prepared according to the user instruction. Then 25 µL of the incubated radiotracer were given onto the columns and the devices were centrifuged (2000 × g, 2 min). Eluate and solid phase were analysed in the γ-counter (Wallac Wizard). The percentage of unbound radioligand was calculated as %free=cpmsolidphase/cpmsolidphase+cpmeluate . The sample in saline was used as control.

[4] = Radiotracer stability in human serum by radio-HPLC; assay type: in vitro ADME; settings: 37 °C
Experimental: The stability of ^18F-labelled compounds was determined in human serum. An aliquot of the radiotracer (5–10 MBq) was added to 200 µL human serum and incubated at 37 °C. Aliquots of 15 µL were taken after 5, 10, 15, 30, 45, 60, 120 and 180 min and quenched in 100 µL of 10% aqueous TFA. The samples were centrifuged (20000 × g, 2 min), and the supernatants were analysed by radio-HPLC (Chromolith RP-18e, 100 × 4.6 mm, 4 mL/min, 0–1 min 25% CH3CN (0.1% TFA) in water (0.1% TFA), 1–6 min 25–60%, 6–7 min 60–100%, 7–8 min 100%).

[5] = test system: MCF-7-Y1 tumour slices; experiment: In-vitro autoradiography on MCF-7-Y1 tumour xenograft slices; assay type: binding, human; settings: blocking with 1 µM and 10 µM BIBP3226
Experimental: MCF-7-Y1 tumour bearing mice were sacrificed by cervical dislocation under deep isoflurane anesthesia and tumours were excised and subsequently frozen in a hexane/dry ice bath (−70 °C). MCF-7-Y1 tumour slices (14 µm) were prepared on a cryostat microtome HM 500 O (Microm, Walldorf) and thaw-mounted on Histobond® adhesive glass slides (Marienfeld, Lauda-Königshofen).
For autoradiography studies slides were thawed and pre-incubated for 15 min in incubation buffer (50 mM TRIS HCl, pH 7.4, containing 120 mM NaCl, 5 mM MgCl2,) at room temperature. Thereafter, 800 µL of incubation buffer, containing 0.1 MBq of the respective radiotracer were pipetted on the slide and incubated at room temperature for 60 min. For displacement studies BIBP3226 (1 µM or 10 µM) was added to the incubation buffer before pipetting on the slides. Afterwards slides were washed by placing in ice cold incubation buffer (3 × 2 min) followed by short dipping in ice cold distilled water. Slides were carefully dried in a stream of warm air and finally placed on an autoradiography film (Fuji Imaging Plate BAS-IP SR 2025 E, Fujifilm, Düsseldorf) overnight prior to readout (25 µm resolution) on the autoradiograph (HD-CR-35 Bio, Raytest, Straubenhardt) and analysis with the software AIDA (Raytest). Additional sections were stained with hematoxylin and eosin (H&E) for comparison with the autoradiography images.

[6] = Biodistribution in healthy mice; assay type: in vivo, mouse; settings: at 30 and 90 min p.i.
Experimental: Biodistribution studies were conducted using female NMRI outbred mice (HsdWin:NMRI) purchased from Envigo (Horst, The Netherlands). Mice were kept in groups of four to five animals in individually ventilated cages in a twelve hours dark/light cycle with unlimited access to water and standard chow. At the age of eight to nine weeks six animals per radiotracer were injected with 2–4 MBq of the respective radiotracer under isoflurane anesthesia. Mice were sacrificed by cervical dislocation 30 or 90 min p.i. of the radiotracer. Blood as well as the organs/tissues lung, liver, kidneys, heart, spleen, brain, muscle, intestines, gall bladder and bones were harvested and analysed in the γ-counter. Samples were weighed and radioactivity in different tissues was calculated as percentage of the total injected dose per gram tissue (%ID/g).

[7] = Radioactive metabolites of Y1R radioligands in mouse blood; assay type: in vivo
Experimental: Nude mice were anesthetised with isoflurane and injected with the respective radiotracer (3–25 MBq) into the tail vein. After 5 min, animals were sacrificed by cervical dislocation and approx. 100 µL blood were collected from the abdomen and transferred into Li-heparinised Microvettes® (100 LH, Sarstedt). The same volume of aqueous urea (0.8 g/mL) was added and the Microvette® was centrifuged (2000 × g, 5 min). The supernatant was transferred to a 1.5 mL reaction vial, mixed with the same volume of 10% aqueous TFA and centrifuged (20000 × g, 5 min). This step was repeated once. A sample of the resulting supernatant (100 µL) was analysed by radio-HPLC using two methods (Chromolith RP-18e, 100 × 4.6 mm, 4 mL/min, 0–1 min 25% CH3CN (0.1%TFA) in water (0.1%TFA), 1–6 min 25–60%, 6–7 min 60–100%, 7–8 min 100%; Kromasil 100 C8 5 µm, 250 × 4.6 mm, 1.5 mL/min, 1–25 min 20–53.3% CH3CN (0.1% TFA) in water (0.1% TFA), 25–27 min 53.3–80%, 27–28 min 80–100%, 28–32 min 100%).

[8] = test system: MCF-7-Y1 tumours; experiment: Small animal PET in MCF-7-Y1 xenografted nude mice; assay type: in vivo, mouse; settings: 45–60 min p.i., blocking by co-injection of BIBP3226 1 mg/kg
Experimental: For the NPY Y1R xenograft model, female NMRI nude mice (HsdCpb:NMRI-Foxn1^nu) were purchased from Envigo (Horst, The Netherlands) at the age of three weeks. Mice were kept in groups of four to five animals in individually ventilated cages in a twelve hours dark/light cycle with unlimited access to water and standard chow. At the age of nine to ten weeks one 17β-estradiol pellet per animal (0.72 mg per pellet, 3 mm diameter) with a 60-day release time (Innovative Research of America, Sarasota, FL, USA) was subcutaneously implanted on the back under isoflurane anesthesia. After three days, approximately 10^6 MCF-7-Y1 tumour cells (in 50 µL PBS) were mixed with Matrigel (50 µL, BD Biosciences, Heidelberg) and then injected subcutaneously at the back. Tumour diameters and weight of the animals were recorded five times a week. Imaging studies were performed four weeks after inoculation of the cells.
Small animal PET scans were performed on an Inveon™ microPET scanner (Siemens Healthcare, Erlangen) under isoflurane anesthesia (3%). Tumour bearing mice (26–35 g, n = 2–3 for each radioligand) were intravenously injected into the tail vein with the respective radiotracer (1.5–4.2 MBq in about 100 µL of saline) under isoflurane anesthesia (3–4%). Static images were acquired for 15 min starting 45 min p.i. of the radiotracer. For displacement studies, the same mice were co-injected with the radiotracer ([^18F]12 and [^18F]13 only) and BIBP3226 (1 mg/kg). Images were corrected for decay and attenuation and MAP (iterative maximum a posteriori) images were reconstructed using the built-in software of the PET scanner. Evaluation of the MAP images was conducted using the software PMOD (version 3.6, PMOD Technologies LLC, Zürich). Regions of interests (ROIs) were drawn and radioactivity concentration within these regions was obtained from the mean values and calculated as percentage of the total injected dose per gram tissue (% ID/g).

[9] = biological target: T1, hY5R (Homo sapiens, UniProt Q15761); settings: read-out: Kd of the radioligand (Y5R); cited from earlier work
T1 construct: expressed in transfected cells; host or cells: HEC-1b cells (HEC-1b hY5R)
T1 sequence (Q15761 1-445): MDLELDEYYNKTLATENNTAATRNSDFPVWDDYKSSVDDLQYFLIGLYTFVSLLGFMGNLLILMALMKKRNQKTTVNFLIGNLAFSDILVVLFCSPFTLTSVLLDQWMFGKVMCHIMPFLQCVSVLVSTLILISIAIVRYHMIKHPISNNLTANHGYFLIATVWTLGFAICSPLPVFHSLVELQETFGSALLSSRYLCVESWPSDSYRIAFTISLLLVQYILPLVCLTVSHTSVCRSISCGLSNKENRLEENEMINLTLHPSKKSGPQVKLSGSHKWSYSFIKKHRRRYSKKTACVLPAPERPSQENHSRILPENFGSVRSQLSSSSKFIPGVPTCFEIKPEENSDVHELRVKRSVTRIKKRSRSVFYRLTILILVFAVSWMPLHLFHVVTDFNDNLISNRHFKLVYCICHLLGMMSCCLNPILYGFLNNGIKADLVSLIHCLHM

Molecule: NC(N)=NCCC[C@@H](NC(=O)C(c1ccccc1)c1ccccc1)C(=O)NCc1ccc(O)cc1 [BIBP3226]
Ki [1]: 1.3 nM

logD [2]: 1.74 ± 0.07 | fraction unbound at 10 min [3]: 0.38 | Stability over 3 h in human serum [4]: >99% | kidney uptake [6]: about three times higher | radiometabolites in the blood ([7]; mouse): > 90% | stability in the blood in vivo (in words) ([7]; mouse blood samples taken early after radiotracer injection): underwent rapid degradation in the blood | intact radioligand in blood samples ([7]; mouse, 5 min p.i.): 10%
Molecule: N/C(=N/C(=O)NCc1cn(CCOCC[18F])nn1)NCCC[C@@H](NC(=O)C(c1ccccc1)c1ccccc1)C(=O)NCc1ccc(O)cc1 [[^18F]12, (2R)‐5‐{[(1Z)‐Amino({[({1‐[2‐(2‐[^18F]fluoroethoxy)ethyl]‐1H‐1,2,3‐triazol‐4‐yl}methyl)carbamoyl]-imino})methyl]amino}‐2‐(2,2‐diphenylacetamido)‐N‐[(4‐hydroxyphenyl)methyl]pentanamide]
specific binding to MCF-7-Y1 tumour slices (autoradiography) [5]: marked specific binding; also recorded: highest specific binding to Y1R-positive cells and to tumour slices | tumour visualisation / specific tumour accumulation in PET [8]: displaceable and thus specific Y1R-mediated tumour acculuation in vivo; also recorded: enhanced and specific tumour uptake; also recorded: highest specific binding to the Y1R-positive tumour in vivo

Molecule: [^3H]propionyl-pNPY: tritiated radioligand used for competition binding at hY2R and hY5R
Kd [9]: 4.8 nM
